US20250179022A1, “COMPOUND USED AS TYK2 INHIBITOR, PREPARATION METHOD THEREFOR, AND PHARMACEUTICAL USE THEREOF” (SHANGHAI ZHIGEN PHARMACEUTICAL & TECHNOLOGY CO. LTD., priority 2022, published 2025)
Converted amounts (≈) assume the structure as drawn.

Columns and labels:
hERG potassium channel = biological target: T1, hERG potassium channel (Homo sapiens, UniProt Q12809); assay: hERG potassium channel inhibition assay (CHO-hERG cells, Qpatch automated patch clamp); format: cell-based; details: highest tested concentration 40 μM
T1 construct: expressed in transfected cells; host or cells: CHO
T1 sequence (Q12809 whole entry): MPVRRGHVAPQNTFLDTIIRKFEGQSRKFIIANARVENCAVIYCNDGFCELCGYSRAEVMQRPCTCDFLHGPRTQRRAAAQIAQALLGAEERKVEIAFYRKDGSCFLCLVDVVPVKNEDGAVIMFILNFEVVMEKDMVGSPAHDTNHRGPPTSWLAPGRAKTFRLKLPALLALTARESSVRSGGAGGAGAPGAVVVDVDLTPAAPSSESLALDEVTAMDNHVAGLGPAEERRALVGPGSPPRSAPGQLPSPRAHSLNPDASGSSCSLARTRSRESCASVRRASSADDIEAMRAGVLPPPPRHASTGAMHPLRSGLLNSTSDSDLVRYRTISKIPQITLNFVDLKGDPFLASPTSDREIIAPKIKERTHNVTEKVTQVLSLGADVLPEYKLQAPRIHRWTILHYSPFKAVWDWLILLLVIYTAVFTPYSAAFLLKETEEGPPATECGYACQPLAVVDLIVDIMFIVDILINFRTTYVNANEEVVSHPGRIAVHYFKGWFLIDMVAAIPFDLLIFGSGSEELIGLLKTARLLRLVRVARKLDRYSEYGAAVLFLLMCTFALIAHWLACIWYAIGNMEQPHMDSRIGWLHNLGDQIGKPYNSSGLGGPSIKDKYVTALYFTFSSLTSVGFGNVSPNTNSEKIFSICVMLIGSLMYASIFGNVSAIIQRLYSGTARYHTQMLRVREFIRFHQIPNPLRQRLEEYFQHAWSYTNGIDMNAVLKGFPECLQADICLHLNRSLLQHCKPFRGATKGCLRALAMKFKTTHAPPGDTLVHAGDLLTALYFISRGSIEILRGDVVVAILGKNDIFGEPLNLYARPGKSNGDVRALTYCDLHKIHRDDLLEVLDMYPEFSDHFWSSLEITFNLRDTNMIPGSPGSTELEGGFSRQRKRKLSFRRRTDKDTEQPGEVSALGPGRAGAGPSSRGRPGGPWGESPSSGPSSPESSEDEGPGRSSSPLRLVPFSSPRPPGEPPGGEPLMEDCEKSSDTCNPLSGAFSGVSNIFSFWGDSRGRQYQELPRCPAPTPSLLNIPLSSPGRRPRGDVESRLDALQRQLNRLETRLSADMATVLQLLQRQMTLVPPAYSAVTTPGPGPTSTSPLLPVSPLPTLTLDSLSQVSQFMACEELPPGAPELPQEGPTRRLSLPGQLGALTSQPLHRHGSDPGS
Description: 4.1 Purpose of the Experiment The blocking effect of the compounds in the present invention on hERG potassium currents on stable cell lines transfected with hERG potassium channels was tested by applying a fully automated membrane clamp.
CHO-hERG cells were cultured in 175 cm^2 culture flasks, and when the cell density grew to 60-80%, the culture medium was removed and washed with 7 ml of PBS (Phosphate Buffered Saline), and then 3 ml of Detachin was added for digestion.
When digestion was completed, 7 ml of culture medium was added to neutralize the cells, then centrifuged, the supernatant was removed, and 5 ml of culture medium was added to resuspend the cells to ensure that the cell density is 2-5×10^6/ml.
The single-cell high-impedance sealing and whole-cell pattern formation processes were all automated with the Qpatch instrument. After obtaining the recording pattern, the cells were clamped at −80 mV, and a −50 mV preconditioning voltage was given for 50 ms prior to giving a +40 mV depolarizing stimulus for 5 s. The cell was then repolarized to −50 mV to be maintained for 5 s and then returned to −80 mV. This voltage stimulus was applied every 15 s. […]
The experimental data was analyzed by XLFit software.

[1] = test system: IFN-α-induced STAT phosphorylation; assay: IFN-α-induced STAT phosphorylation in human whole blood; format: cell-based; details: for higher anti-inflammatory activity compared to the control BMS-986165: IFN-α-induced STAT phosphorylation in human whole blood, relative to BMS-986165; for IC50: human whole blood, 20 ng/ml IFN-α, pSTAT5 in CD3-positive cells, read-out: IC50, IFN-α inflammatory pathway (IFN-α-induced STAT phosphorylation)
From the text: The cytokine receptor attached to TYK2 mediates the signaling of type 1 interferon (IFN-α), which has been identified as the most important inflammatory factor of the autoimmune system. Human whole blood is induced with IFN-α, and TYK2 from lymphocytes in whole blood triggered STAT phosphorylation, which mediated subsequent inflammatory signaling. Therefore, TYK2 inhibitors have an inhibitory effect on IFN-α signaling, and the stronger the TYK2 inhibitory activity, the lower the level of STAT phosphorylation, and the stronger the corresponding anti-inflammatory effect.
In this experiment, the ability of the compounds to inhibit IFN-α-induced STAT phosphorylation in human whole blood were tested, and the IC50 values were calculated. The anti-inflammatory activity of the compounds was evaluated at the tissue level and evaluation of the inhibitory activity of compounds on the IFN-α inflammatory pathway based on the IC50 value.
The tested compound, powder and stored at room temperature, prepared into 10 mM stock solution with DMSO and stored at −80° C. in the refrigerator.
1× Fix/Lysis solution preparation: 5× Fix/Lysis and ddH2O were diluted according to 1:4 and preheated in 37° C. incubator, waiting for use.
Flow cytometric staining buffer preparation: 1 g of bovine serum albumin (BSA) and 1 mL of EDTA (0.5 M) solution were added to 500 mL of phosphate buffer solution (PBS) and stored at 4° C. in the refrigerator.
Compound dilution solution: 0.5 g of bovine serum albumin (BSA) was added to 500 mL of phosphate buffer solution (PBS), and stored at 4° C. in the refrigerator.
50 μg/mL IFN-alpha was diluted to 400 ng/mL with Compound Diluent and set aside.
67.5 μL of human whole blood was added to a 96-well plate using a 300 μL electric volley gun. 3.5 μL of prepared test compound was added, mixed well and placed in the cell culture incubator. After 60 min incubation, 400 ng/mL IFN-α (Biolegend 592702, final concentration 20 ng/ml) was added. The obtained was mixed well and placed in the cell culture incubator to continue incubation for 15 min.
After cytokine stimulation, 5 ul of PE-CD3 (BD 555333) antibody was added to each well, mixed and incubation was continued at 4° C. in the refrigerator. At the end, whole blood was transferred to a 96-well deep-well plate using a volley gun, pre-warmed 1× Fix/Lysis solution was added, and cells were lysed and fixed for 12 minutes at 37° C. in an incubator. After being washed, 400 μL of Perm III solution was added, vortexed and incubated on ice for 30 minutes. Cells were then stained by 100 μL of APC-pSTAT5 (1:100) antibody for 50 min at room temperature. This was followed by flow-through instrumentation. The expression of pSTAT5 was quantified by median fluorescence intensity after gating the CD3-positive signaling cluster.

[2] = In vivo pharmacokinetic experiment in rats (oral); design: species or system SD rats; details: 5 mg/kg
Description: Experimental method: Healthy male SD rats were randomly grouped into 3 rats in each group and given the test compound orally. The rats were fasted for 12 h before the gavage experiment, and drank water freely, and were fed uniformly for 4 h after the administration of the compounds. Before (0 h) and 0.25, 0.5, 1.0, 2.0, 4.0, 6.0, 8.0 and 24 h after the administration of the test compounds, 0.2 mL of blood was collected from the jugular vein at the above set time points and placed in EDTA-K2 tubes, and the whole blood was collected and stored temporarily in an ice-water bath, and then centrifuged at 11,000 rpm for 5 min within 30 min, the plasma was separated, and frozen at −70° C. in a refrigerator for testing.

[3] = Solubility in water (at pH=7); format: physicochemical
From the text: Test Example 6: Solubility of the Compounds of the Invention in Water (at pH=7)

[4] = In vivo pharmacokinetic experiments in Beagle dogs (oral); details: 2 mg/kg
Description: Experimental Methods: Healthy male Beagle dogs were randomly grouped into 3 […] in each group, and were given the test compounds orally. Before the gavage experiment, the dogs were fasted for 12 h, drank water freely, and were uniformly fed for 4 h after the administration of the drug. 0.083, 0.25, 0.5, 1.0, 2.0, 4.0, 6.0, 8.0, 10 and 24 h after administration; about 600 μL of blood was collected from the forelimb or hindlimb at the above set time points and placed in EDTA-K2 tubes, and the whole blood was collected and stored temporarily in an ice-water bath, and then centrifuged at least 3500 rpm for 10 min within 30 min, and the plasma was separated and frozen in a −70° C. refrigerator for testing.

IC50 [1] | AUC [2] | F [2] | Cmax ([2]; male, SD, rat, plasma) | MRT ([2]; male, SD, rat, plasma) | half-life ([2]; male, SD, rat, plasma) | Solubility [3] | AUC [4] | F [4] | Cmax ([4]; male, dog, plasma) | MRT ([4]; male, dog, plasma) | half-life ([4]; male, dog, plasma) | SMILES | IC50 (hERG potassium channel) | higher anti-inflammatory activity compared to the control BMS-986165 [1]
3.7 nM | – | – | – | – | – | – | – | – | – | – | – | [2H]C([2H])([2H])NC(=O)c1nnc(NC(=O)C2CC2)cc1Nc1nc(N)c(Cl)cc1[S@](C)(=N)=O [Example 29, (R)-4-((6-amino-5-chloro-3-(S-methylsulfoximino)pyridin-2-yl)amino)-6-(cyclopropylcarboxamido)-N-(methyl-d3)pyridazine-3-carboxamide] | > 30000 nM | about 6 fold
4 nM | 2644 ngh/mL | 103.8% | 651 ng/mL | 3.54 h | 2.48 h | 22 µg/mL (≈ 48.3 µM) | 6684 ngh/mL | 117% | 485 ng/mL | 10.7 h | 7.26 h | [2H]C([2H])([2H])NC(=O)c1nnc(NC(=O)C2CC2)cc1Nc1nc(N)c(Cl)cc1[S@@](C)(=O)=NC [Example 28] | > 30000 nM | about 6 fold
